Experiment: molar heat capacity at constant pressure
Conditions: Liquid, Twin Calvet

CC(F)F [1,1-difluoroethane]
molar heat capacity at constant pressure [J/K/mol]
Conditions | 1490 kPa | 2070 kPa | 2540 kPa | 2950 kPa | 3440 kPa | 4010 kPa | 4600 kPa | 5030 kPa
305.15 K | 121 | 121.14 | 120.81 | 120.28 | 119.29 | 119.55 | 118.96 | 118.49
310.15 K | 121.8 | 121.53 | 121.07 | 120.81 | 120.08 | 119.75 | 119.35 | 119.09
315.15 K | 123.84 | 123.25 | 122.79 | 122.46 | 121.8 | 121.2 | 120.61 | 120.41
320.15 K | 126.16 | 125.23 | 124.77 | 124.24 | 123.71 | 122.99 | 122.06 | 121.8
325.15 K | 129 | 127.61 | 127.01 | 126.42 | 125.89 | 124.97 | 123.84 | 123.45
330.15 K | – | 130.65 | 129.79 | 129.13 | 128.47 | 127.41 | 126.09 | 125.63
335.15 K | – | 134.21 | 133.22 | 132.36 | 131.44 | 130.18 | 128.8 | 128.27
340.15 K | – | – | 137.25 | 136.06 | 134.94 | 133.49 | 131.9 | 131.31
345.15 K | – | – | 141.88 | 140.36 | 139.04 | 137.32 | 135.34 | 134.61
350.15 K | – | – | – | 146.1 | 144.05 | 141.88 | 139.43 | 138.51
355.15 K | – | – | – | – | 150.66 | 147.56 | 144.45 | 143.2
360.15 K | – | – | – | – | – | 155.02 | 151.06 | 149.14

COC [dimethyl ether]
molar heat capacity at constant pressure [J/K/mol]
Conditions | 1460 kPa | 2030 kPa | 2520 kPa | 2930 kPa | 3540 kPa | 4060 kPa | 4580 kPa | 5020 kPa
305.15 K | 113.19 | 112.82 | 112.13 | 112.36 | 111.99 | 111.53 | 111.26 | 111.02
310.15 K | 113.47 | 112.91 | 112.31 | 112.45 | 111.72 | 111.21 | 111.44 | 111.3
315.15 K | 114.8 | 114.11 | 113.6 | 113.47 | 112.78 | 112.13 | 112.45 | 112.22
320.15 K | 116.23 | 115.45 | 115.03 | 114.89 | 114.02 | 113.37 | 113.56 | 113.28
325.15 K | 117.84 | 116.92 | 116.65 | 116.05 | 115.31 | 114.57 | 114.66 | 114.3
330.15 K | – | 118.86 | 118.49 | 117.75 | 117.01 | 116.05 | 116.05 | 115.59
335.15 K | – | 121.34 | 120.84 | 120.15 | 119.27 | 118.03 | 117.98 | 117.38
340.15 K | – | – | 123.92 | 123.09 | 122.08 | 120.65 | 120.52 | 119.82
345.15 K | – | – | 127.75 | 126.55 | 125.35 | 123.92 | 123.65 | 122.86
350.15 K | – | – | – | 130.65 | 129.13 | 127.75 | 127.19 | 126.27
355.15 K | – | – | – | – | 133.46 | 131.94 | 131.06 | 129.91
360.15 K | – | – | – | – | – | 136.82 | 135.67 | 134.15
365.15 K | – | – | – | – | – | 144.01 | 142.31 | 140.42
